The conditions of the series: Sprague–Dawley rats.

Consider `CN(C)[C@@H]1C(O)=C(C(N)=O)C(=O)[C@@]2(O)C(O)=C3C(=O)c4c(c(F)c5ccc(CN6CCC6)cc5c4O)C[C@H]3C[C@@H]12` [19c-5, (4S,4aS,5aR,14aS)-10-(Azetidin-1-ylmethyl)-4-(dimethylamino)-7-fluoro-3,12,14,14a-tetrahydroxy-1,13-dioxo-1,4,4a,5,5a,6,13,14a-octahydropentacene-2-carboxamide], for which the Vz result was “exceptionally large” and the exposure result is on record as “extremely poor exposure”.

Consider `CN(C)c1cc(NC(=O)CNC(C)(C)C)c(O)c2c1C[C@H]1C[C@H]3[C@H](N(C)C)C(O)=C(C(N)=O)C(=O)[C@@]3(O)C(O)=C1C2=O` [tigecycline, reference compound], for which the “oral bioavailability (%F)” value is on record as “almost no oral bioavailability”.

The values above are taken from publication PMC3108469 (Journal of Medicinal Chemistry, 2011).
